According to patent US9169260B2 (MERCK SHARP & DOHME CORP., priority 2011, dated 2015):

Biological target: GST tagged IRAK-4 (Homo sapiens (Human), UniProt Q9NWZ3)
Experiment: IRAK-4 Kinase Assay (IMAP fluorescence polarization)
Format: biochemical
Conditions: 100 μM ATP, 30 minutes at 25° C.
Procedure, shortened: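 Activity was read by IMAP fluorescence polarization, where phosphopeptide binding to M(III) nanoparticles raises FP. The 30-minute, 25° C reaction used 100 μM ATP, 100 nM RP7030 substrate and 0.5 nM GST-IRAK-4 in pH 7.2 Tris buffer with MgCl2, DTT and Tween 20.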

Chain of GST tagged IRAK-4 (Q9NWZ3 whole entry): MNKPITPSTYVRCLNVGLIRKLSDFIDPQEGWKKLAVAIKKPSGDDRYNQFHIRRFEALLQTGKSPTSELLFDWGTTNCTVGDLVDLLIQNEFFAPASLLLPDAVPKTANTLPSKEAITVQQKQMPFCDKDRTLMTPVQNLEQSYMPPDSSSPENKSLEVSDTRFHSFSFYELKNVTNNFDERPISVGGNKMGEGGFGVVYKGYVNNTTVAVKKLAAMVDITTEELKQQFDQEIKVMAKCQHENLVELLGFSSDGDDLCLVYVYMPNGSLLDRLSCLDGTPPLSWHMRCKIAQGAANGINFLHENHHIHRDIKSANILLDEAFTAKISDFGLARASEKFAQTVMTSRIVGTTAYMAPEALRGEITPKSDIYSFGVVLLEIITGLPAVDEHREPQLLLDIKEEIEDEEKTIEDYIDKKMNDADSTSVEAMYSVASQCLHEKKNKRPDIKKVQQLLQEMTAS

| Compound | IC50 (μM) [µM] | IC50 [µM] |
| --- | --- | --- |
| Cc1ccc(-n2nc(C3CCNC3)cc2NC(=O)c2cnn3cccnc23)cc1 (stereo not shown) [Example 80, N-(3-(pyrrolidin-3-yl)-1-(p-tolyl)-1H-pyrazol-5-yl)pyrazolo[1,5-a]pyrimidine-3-carboxamide] | < 1 |  |
| Cc1ccc(-n2nc(C3CCN(CC(N)=O)CC3)cc2NC(=O)c2cnn3cc(Br)cnc23)cc1 [Example 115, N-(3-(1-(2-amino-2-oxoethyl)piperidin-4-yl)-1-(p-tolyl)-1H-pyrazol-5-yl)-6-bromopyrazolo[1,5-a]pyrimidine-3-carboxamide] |  | < 0.1 |
| Cc1ccc(-n2nc(C3CCCN(S(C)(=O)=O)C3)cc2NC(=O)c2cnn3cccnc23)cc1 (stereo not shown) [Example 43, N-(3-(1-(methylsulfonyl)piperidin-3-yl)-1-(p-tolyl)-1H-pyrazol-5-yl)pyrazolo[1,5-a]pyrimidine-3-carboxamide] | < 1 |  |
| Cc1ccc(-n2nc(C3CCN(C(=O)CO)CC3)cc2NC(=O)c2cnn3cc(Br)cnc23)cc1 [Example 112, 6-bromo-N-(3-(1-(2-hydroxyacetyl)piperidin-4-yl)-1-(p-tolyl)-1H-pyrazol-5-yl)pyrazolo[1,5-a]pyrimidine-3-carboxamide] | < 1 |  |
| CCS(=O)(=O)N1CC(N2CCC(c3cc(NC(=O)c4cnn5cccnc45)n(-c4ccc(C)cc4)n3)CC2)C1 [Example 243, N-[3-{1-[1-(ethylsulfonyl)azetidin-3-yl]piperidin-4-yl}-1-(4-methylphenyl)-1H-pyrazol-5-yl]pyrazolo[1,5-a]pyrimidine-3-carboxamide] | < 1 |  |
| Cc1ccc(-n2nc(C3CCN(Cc4ccccc4)CC3)cc2NC(=O)c2cnn3cccnc23)cc1 [Example 218, N-[3-(1-benzylpiperidin-4-yl)-1-(4-methylphenyl)-1H-pyrazol-5-yl]pyrazolo[1,5-a]pyrimidine-3-carboxamide] |  | > 0.1 |
| COc1cccc(CN2CC(c3cc(NC(=O)c4cnn5cccnc45)n(-c4ccc(C)cc4)n3)C2)n1 [Example 315, N-[3-{1-[(6-methoxypyridin-2-yl)methyl]azetidin-3-yl}-1-(4-methylphenyl)-1H-pyrazol-5-yl]pyrazolo pyrimidine-3-carboxamide] |  | < 0.1 |
| Cc1ccc(-n2nc(-c3ccc(S(=O)(=O)N4CCN(C)CC4)cc3)cc2NC(=O)c2cnn3cccnc23)cc1 [Example 342, N-[1-(4-methylphenyl)-3-{4-[(4-methylpiperazin-1-yl)sulfonyl]phenyl}-1H-pyrazol-5-yl]pyrazolo[1,5-a]pyrimidine-3-carboxamide] |  | < 0.1 |
| COC(=O)N1CCC(c2cc(NC(=O)c3cnn4cc(Br)cnc34)n(-c3ccc(C)cc3)n2)CC1 [Example 118, methyl 4-(5-(6-bromopyrazolo[1,5-a]pyrimidine-3-carboxamido)-1-(p-tolyl)-1H-pyrazol-3-yl)piperidine-1-carboxylate] |  | < 0.1 |
| Cc1ccc(-n2nc(C3CCN(S(=O)(=O)c4ccc(Cl)s4)CC3)cc2NC(=O)c2cnn3cccnc23)cc1 [Example 393, N-[3-{1-[(5-chlorothiophen-2-yl)sulfonyl]piperidin-4-yl}-1-(4-methylphenyl)-1H-pyrazol-5-yl]pyrazolo[1,5-a]pyrimidine-3-carboxamide] | > 1 |  |
| CNS(=O)(=O)c1ccc(-c2cc(NC(=O)c3cnn4cccnc34)n(-c3ccc(F)cc3F)n2)cc1 [Example 34, N-(1-(2,4-difluorophenyl)-3-(4-(N-methylsulfamoyl)phenyl)-1H-pyrazol-5-yl)pyrazolo[1,5-a]pyrimidine-3-carboxamide] |  | < 0.1 |
| methyl((4-(5-(pyrazolo[1,5-a]pyrimidine-3-carboxamido)-1-(p-tolyl)-1H-pyrazol-3-yl)cyclohexyl)methyl)carbamate [Example 183] | < 1 |  |
| Cc1ccc(-n2nc(C3CCN(S(C)(=O)=O)CC3)cc2NC(=O)c2cnn3cccnc23)cc1 [Example 18, N-(3-(1-(methylsulfonyl)piperidin-4-yl)-1-(p-tolyl)-1H-pyrazol-5-yl)pyrazolo[1,5-a]pyrimidine-3-carboxamide] |  | < 0.1 |
| Cc1ccc(-n2nc(C3CCN(C4CCCOC4)CC3)cc2NC(=O)c2cnn3cccnc23)nc1 (stereo not shown) [Example 264, N-{1-(5-methylpyridin-2-yl)-3-[1-(tetrahydro-2H-pyran-3-yl)piperidin-4-yl]-1H-pyrazol-5-yl}pyrazolo[1,5-a]pyrimidine-3-carboxamide] |  | < 0.1 |
| Cc1ccc(-n2nc(C3CCN(S(=O)(=O)c4ccc(N5CCOCC5)nc4)CC3)cc2NC(=O)c2cnn3cccnc23)cc1 [Example 383, N-[1-(4-methylphenyl)-3-{1-[(6-morpholin-4-ylpyridin-3-yl)sulfonyl]piperidin-4-yl}-1H-pyrazol-5-yl]pyrazolo[1,5-a]pyrimidine-3-carboxamide] | < 1 |  |
| Cc1ccc(-n2nc(C3CCN(Cc4nccs4)CC3)cc2NC(=O)c2cnn3cccnc23)cc1 [Example 222, N-{1-(4-methylphenyl)-3-[1-(1,3-thiazol-2-ylmethyl)piperidin-4-yl]-1H-pyrazol-5-yl}pyrazolo[1,5-a]pyrimidine-3-carboxamide] | < 1 |  |

| Compound | IC50 (μM) [µM] | IC50 [µM] |
| --- | --- | --- |
| CNS(=O)(=O)c1ccc(-c2cc(NC(=O)c3cnn4cc(Cl)cnc34)n(-c3ccc(C)cn3)n2)cc1 [Example 196, 6-chloro-N-(1-(5-methylpyridin-2-yl)-3-(4-(N-methylsulfamoyl)phenyl)-1H-pyrazol-5-yl)pyrazolo[1,5-a]pyrimidine-3-carboxamide] |  | < 0.1 |
| Cc1ccc(-n2nc(C3CCN(C)CC3)cc2NC(=O)c2cnn3cc(Br)cnc23)cc1 [Example 111, 6-bromo-N-(3-(1-methylpiperidin-4-yl)-1-(p-tolyl)-1H-pyrazol-5-yl)pyrazolo[1,5-a]pyrimidine-3-carboxamide] | < 1 |  |
| COc1ccc(S(=O)(=O)N2CCC(c3cc(NC(=O)c4cnn5cccnc45)n(-c4ccc(C)cc4)n3)CC2)cc1 [Example 367, N-[3-{1-[(4-methoxyphenyl)sulfonyl]piperidin-4-yl}-1-(4-methylphenyl)-1H-pyrazol-5-yl]pyrazolo[1,5-a]pyrimidine-3-carboxamide] | < 1 |  |
| Cc1ccc(-n2nc(C3CCN(C4CN(C(=O)OC(C)C)C4)CC3)cc2NC(=O)c2cnn3cccnc23)cc1 [Example 240, 1-methylethyl 3-(4-{1-(4-methylphenyl)-5-[(pyrazolo[1,5-a]pyrimidin-3-ylcarbonyl)amino]-1H-pyrazol-3-yl}piperidin-1-yl)azetidine-1-carboxylate] | < 1 |  |
| COCCOC(=O)N1CC(N2CCC(c3cc(NC(=O)c4cnn5cccnc45)n(-c4ccc(C)cc4)n3)CC2)C1 [Example 242, 2-methoxyethyl 3-(4-{1-(4-methylphenyl)-5-[(pyrazolo[1,5-a]pyrimidin-3-ylcarbonyl)amino]-1H-pyrazol-3-yl}piperidin-1-yl)azetidine-1-carboxylate] | < 1 |  |
| Cc1ccc(-n2nc(C3CCN(C4CC(C(C)(C)C)C4)CC3)cc2NC(=O)c2cnn3cccnc23)cc1 (stereo not shown) [Example 256, N-{3-[1-(3-tert-butylcyclobutyl)piperidin-4-yl]-1-(4-methylphenyl)-1H-pyrazol-5-yl}pyrazolo[1,5-a]pyrimidine-3-carboxamide] |  | < 0.1 |
| COc1cc(NC(=O)c2cnn3cccnc23)n(-c2ccc(C)cn2)n1 [Example 182, N-(3-methoxy-1-(5-methylpyridin-2-yl)-1H-pyrazol-5-yl)pyrazolo[1,5-a]pyrimidine-3-carboxamide] | < 1 |  |
| O=C(Nc1cc(C2CCN(S(=O)(=O)C3CC3)CC2)nn1-c1ccc(F)cc1)c1cnn2cccnc12 [Example 22, N-(3-(1-(cyclopropylsulfonyl)piperidin-4-yl)-1-(4-fluorophenyl)-1H-pyrazol-5-yl)pyrazolo[1,5-a]pyrimidine-3-carboxamide] | < 1 |  |
| COC(=O)N1CCC(c2cc(NC(=O)c3cnn4cccnc34)n(-c3ccc(OC)cc3)n2)CC1 [Example 32, methyl 4-(1-(4-methoxyphenyl)-5-(pyrazolo[1,5-a]pyrimidine-3-carboxamido)-1H-pyrazol-3-yl)piperidine-1-carboxylate] | < 1 |  |
| Cc1ccc(-n2nc(-c3ccc(S(=O)(=O)N(C)C)cc3)cc2NC(=O)c2cnn3cccnc23)cc1 [Example 353, N-{3-[4-(dimethylsulfamoyl)phenyl]-1-(4-methylphenyl)-1H-pyrazol-5-yl}pyrazolo[1,5-a]pyrimidine-3-carboxamide] |  | < 0.1 |
| Cc1ccc(-n2nc(C3CCN(S(C)(=O)=O)CC3)cc2NC(=O)c2cnn3cc(C(N)=O)cnc23)cc1 [Example 120, N3-(3-(1-(methylsulfonyl)piperidin-4-yl)-1-(p-tolyl)-1H-pyrazol-5-yl)pyrazolo[1,5-a]pyrimidine-3,6-dicarboxamide] |  | < 0.1 |
| CC(C)N1CCC(c2cc(NC(=O)c3cnn4cccnc34)n(-c3ccc(C4CC4)cc3F)n2)CC1 [Example 74, N-(1-(4-cyclopropyl-2-fluorophenyl)-3-(1-isopropylpiperidin-4-yl)-1H-pyrazol-5-yl)pyrazolo[1,5-a]pyrimidine-3-carboxamide] |  | < 0.1 |
| O=C(Nc1cc(C2CCN(C3CCC3)CC2)nn1-c1ccc(Cl)cc1F)c1cnn2cccnc12 [Example 51, N-(1-(4-chloro-2-fluorophenyl)-3-(1-cyclobutylpiperidin-4-yl)-1H-pyrazol-5-yl)pyrazolo[1,5-a]pyrimidine-3-carboxamide] |  | < 0.1 |
| CC1(c2cc(NC(=O)c3cnn4cccnc34)n(-c3ccc(CN)cn3)n2)CC1 [Example 176, N-(1-(5-(aminomethyl)pyridin-2-yl)-3-(1-methylcyclopropyl)-1H-pyrazol-5-yl)pyrazolo[1,5-a]pyrimidine-3-carboxamide] |  | < 0.1 |
| COc1ccc(-n2nc(C3CCN(S(C)(=O)=O)CC3)cc2NC(=O)c2cnn3cccnc23)cc1 [Example 16, N-(1-(4-methoxyphenyl)-3-(1-(methylsulfonyl)piperidin-4-yl)-1H-pyrazol-5-yl)pyrazolo[1,5-a]pyrimidine-3-carboxamide] |  | < 0.1 |
